Source: patent publication US20110166196A1, “TREATMENT AND PROPHYLAXIS OF EPILEPSY AND FEBRILE SEIZURES” (priority 2008, published 2011)

Columns and labels:
[1] = tested on: excitatory synapses on interneurons; assay: Drug-induced depression of EPSC amplitudes in slices from TRPV1-/- and C57BL/6 wild-type mice; type: cell-based, mouse; settings: capsaicin 1 μM
Text: The basic methods have been detailed previously (McMahon and Kauer, 1997). Sprague-Dawley rats (15-22 days old) were used in the majority of experiments. In addition, we used TRPV1^−/− mice (Caterina et al., 2000) and wild-type C57BL/6 mice aged between 15 and 21 days (Jackson Laboratory). The TRPV1^−/− mice we used have been backcrossed at least 10 times onto a C57BL/6 background and were obtained from homozygous breeding pairs. Control mice were therefore not littermates but were age-matched, wild-type C57BL/6 animals received from the same supplier in the same shipment. All animal protocols were approved by the Brown University Institutional Animal Care and Use Committee. For mouse experiments, only one brain slice per mouse was used for each experiment, so that reported ‘n’ numbers represent the number of animals. Animals were anaesthetized using halothane or isoflurane and quickly decapitated. […]
Slices were continuously perfused with ACSF warmed to 28-32° C. at a flow rate of 1-2 ml/min. […] EPSCs were stimulated at 0.1 Hz (100 μsec) using a bipolar stainless steel stimulating electrode placed in stratum radiatum at least 200 μm from the recorded cell. […] In early experiments, we measured rectification ratios of EPSCs evoked at +40 mV/−60 mV in the presence of 50 μM D-AP5, measured at the time of peak inward synaptic current seen at −70 mV (Lei and McBain, 2004).
The maximal initial slope of fEPSPs was calculated using a LabVIEW-based program (National Instruments). The peak amplitude of each EPSC was measured by comparing a 10 msec time period immediately prior to the stimulus with the peak of the EPSC using this program as well. Occasionally polysynaptic responses were evoked, and in these cases, only the initial monosynaptic event was measured. To positively identify LTD, EPSCs measured every 10 seconds were averaged in 1 minute intervals. […]

[2] = tested on: area CA3 stratum pyramidale; assay: Heat-induced multi-unit activity (MUA) in hippocampal slices, field-potential recording; type: cell-based, mouse; settings: wild-type slices pre-treated with capsazepine; p<0.05 vs untreated wild-type, n=27
Description: Coronal brain slices, 300-350 μm, were obtained from mice aged postnatal day 14-20 as previously described (Gibson et al., 2008; Gibson et al., 1999; McMahon & Kauer, 1997). Bathing perfusate was identical to previous except where indicated. A Haas-type interface chamber was used for field-potential recordings. Glass micropipettes were filled with 0.9% NaCl (resistance 400-700 kΩ). Simultaneous recordings were made in stratum pyramidale of CA1 and CA3 of each slice. Activity was recorded at 30° C. (5 min), ramped to 42° C. (5 min) and returned to 30° C. (10 min). Signals were amplified, digitally recorded at 10 kHz and stored (LabView).
For field-potential recordings, coronal slices, 350 μm thick, were obtained from P14-15 mice as previously described (Gibson et al., 2008; Gibson et al., 1999; McMahon & Kauer, 1997). Slices were kept at room temperature for at least 30 min until transferred to a 30° C. recording chamber. […] For all field-potential recordings, activity was recorded at 30° C. […] Signals were amplified, digitally recorded at 10 kHz and stored using an in-house LabView based program.
Multi-unit activity (MUA) was high-pass filtered at 500 Hz and spikes were detected using threshold-crossing criteria. […]
All combined data are expressed as mean±the standard error of the mean (s.e.m.). […]

**Q.** What does the source list for COc1cc(CNC(=O)CCCCC=CC(C)C)ccc1O [capsaicin, 8-methyl-N-vanillyl-6-nonenamide]?
**A.** EPSC amplitudes after 10-15 minutes in capsaicin in C57BL/6 wild-type mice ([1]; C57BL/6 wild-type mice, n=6): 50.5±12.1 % of pre-drug control values; EPSC amplitudes after 10-15 minutes in capsaicin in TRPV1−/− mice ([1]; TRPV1−/− mice, n=8): 100.7±6.6 % of pre-drug control values

**Q.** With Oc1cc2c(cc1O)CN(C(=S)NCCc1ccc(Cl)cc1)CCC2 [capsazepine] as the compound, how does the “incidence of heat-induced increased MUA in area CA3” value [2] read?
**A.** Its value is “mimicked trpv1^−/− incidence rates of increased MUA in area CA3”.
